For 23 compounds, TGI, GI50 and outcome results are on record in PubChem BioAssay (NCI).

The structures appear in SMILES notation. Values after ≈ are worked out from the molar mass of the structure shown. Values joined by “and” are separate entries in the source; they are usually repeats but may differ in a detail not shown here. Equal entries are not always repeated.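 Test compounds were applied to cells in 96-well plates for 48 hours at 5 doses. GI50 is the concentration that inhibits growth by half. Definition used: TGI = concentration required for complete inhibition of growth.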 Active and inactive are the calls of the source. No stated cut-off is given here; in the data, active means GI50 below about 0.43 µM; inactive means the rest.

Some test systems named below: XF 498 CNS; KM20L2 colon; RXF-631 renal; DMS 273 small cell lung; M19-MEL melanoma; HOP-18 NSCLC; DMS 114 small cell lung; MDA-N; SNB-78 CNS.
Common to all, as to test: NCI anticancer screen, dose series, 48 h

Turning to `C[C@]12CCC[C@H](O)[C@H]1C[C@H](CO)CC2`, the TGI with XF 498 CNS, with KM20L2 colon, with RXF-631 renal, in the assay on DMS 273 small cell lung, in the assay on M19-MEL melanoma and in the assay on HOP-18 NSCLC was above 100 µM each time.

For `Cn1c2ccccc2c(=O)c2c(O)cc3c(c21)CC(C1(C)CO1)O3` (configuration not stated), the TGI in the assay with XF 498 CNS is 4.73 µM; in the assay with KM20L2 colon, 31.8 µM; in the assay on RXF-631 renal, above 33.6 µM; in the assay on DMS 114 small cell lung it was 5.11 µM; with DMS 273 small cell lung, 49.2 µM; in the assay with HOP-18 NSCLC, above 93.2 µM. In addition, the TGI in the assay with MDA-N came out at 2.73 µM.

As to `CC(=O)[CH-]C(=O)c1ccccc1.CC(=O)[CH-]C(=O)c1ccccc1.CC[C@H](/C=C/C(C)[C@H]1CCC2[C@@H]3CC=C4C[C@@H]([O-])CC[C@]4(C)C3CC[C@@]21C)C(C)C.CC[O-].[Ti+4]` (some centres not stated), the GI50 in the assay with KM20L2 colon, in the assay with DMS 273 small cell lung and with M19-MEL melanoma was above 100 µM throughout. In addition, the TGI in the assay on KM20L2 colon, in the assay on DMS 273 small cell lung and in the assay on M19-MEL melanoma was above 100 µM throughout.

With `O=S(=O)(c1ccc(Br)cc1)N1CCN(S(=O)(=O)c2ccc(Br)cc2)CC1`, in the assay with MDA-N, the TGI is above 100 µM.

Take `C/C(=N\NS(=O)(=O)c1ccc(C)cc1)c1cc2ccccc2n1C`: the TGI with KM20L2 colon, with DMS 114 small cell lung, with DMS 273 small cell lung and with M19-MEL melanoma was above 100 µM in each case.

In the case of `COC(C(=O)C(O)C(C)O)C1Cc2cc3cc(OC4CC(OC5CC(O)C(O)C(C)O5)C(O)C(C)O4)c(C)c(O)c3c(O)c2C(=O)C1OC1CC(OC2CC(O)C(OC3CC(C)(O)C(O)C(C)O3)C(C)O2)C(O)C(C)O1` (configuration not stated), the outcome with XF 498 CNS, in the assay on KM20L2 colon and in the assay on HOP-18 NSCLC was inactive. The GI50 is 0.0556 ng/mL (≈ 0.0512 nM) with DMS 114 small cell lung; 0.0407 ng/mL with DMS 273 small cell lung; 0.0253 ng/mL in the assay with M19-MEL melanoma; 13.9 ng/mL and 25.8 ng/mL in the assay with MDA-N; 0.0424 ng/mL (≈ 0.039 nM) with SNB-78 CNS. Besides, the TGI in the assay with DMS 114 small cell lung is 0.479 ng/mL; in the assay on DMS 273 small cell lung it was 2.4 ng/mL; with M19-MEL melanoma it was 0.31 ng/mL; with MDA-N it was 128 ng/mL and 328 ng/mL; in the assay with SNB-78 CNS, 21.4 ng/mL.

On to `NC1=NN(c2ccccc2)C(=O)C1/C(=N\NC(=O)c1cc2ccccc2cc1O)C(=O)Nc1cccc(C(F)(F)F)c1` (configuration not stated), for which the TGI was above 100 µM in the assay on XF 498 CNS; above 100 µM with KM20L2 colon; 83 µM with DMS 114 small cell lung; above 100 µM in the assay with M19-MEL melanoma; above 100 µM with HOP-18 NSCLC; above 100 µM with SNB-78 CNS.

As to `O=C(/C=C/c1ccccc1Cl)c1cccc2ccccc12`, the TGI in the assay on KM20L2 colon came out at 19.6 µM; in the assay with DMS 114 small cell lung, 15.2 µM; in the assay with DMS 273 small cell lung, 31.6 µM; in the assay on M19-MEL melanoma, 23.5 µM; in the assay with HOP-18 NSCLC it was 29.7 µM; in the assay on SNB-78 CNS, 44.8 µM.

As for `COC(=O)C1=CC2CC1C(S(=O)(=O)c1ccccc1)C2S(=O)(=O)c1ccccc1` (configuration not stated), the TGI turned out to be 33.2 µM in the assay with KM20L2 colon; 26.9 µM in the assay on RXF-631 renal; 36 µM in the assay with DMS 114 small cell lung; 23.4 µM in the assay on DMS 273 small cell lung; 42.2 µM with M19-MEL melanoma; 30.5 µM in the assay on HOP-18 NSCLC.

For `c1ccc(CN2CCC3(CC2)SSC2(CCN(Cc4ccccc4)CC2)SS3)cc1`, in the assay with MDA-N, the TGI is above 100 µM.

Take `NC(=O)c1ncn(CCN2CCN(C(=O)NCCCCCCNC(=O)N3CCN(CCn4cnc(C(N)=O)c4N)CC3)CC2)c1N`: the TGI with XF 498 CNS, in the assay on KM20L2 colon, with RXF-631 renal, in the assay with DMS 273 small cell lung, in the assay with HOP-18 NSCLC and in the assay with SNB-78 CNS was above 100 µM throughout.

The compound `NS(=O)(=O)c1ccc(NCc2cnc3ccccc3n2)cc1` had a TGI with MDA-N above 100 µM.

As for `COc1ccc2c(c1)[n+]([O-])c(-c1ccc(Br)cc1)c(N)[n+]2[O-]`, the TGI in the assay with XF 498 CNS was above 100 µM; in the assay on KM20L2 colon it was above 100 µM; in the assay on DMS 114 small cell lung it was 57.9 µM; in the assay on DMS 273 small cell lung, 68.9 µM; with M19-MEL melanoma, above 100 µM; in the assay with HOP-18 NSCLC, above 100 µM. In the assay with SNB-78 CNS, this compound yielded a TGI above 100 µM.

Turning to `CC1=NN2C(c3ccc(C)cc3)=CSC2=NC(C)(C)C1`, the TGI with XF 498 CNS, with KM20L2 colon, in the assay with DMS 114 small cell lung, in the assay with M19-MEL melanoma, in the assay with HOP-18 NSCLC and in the assay on SNB-78 CNS was above 100 µM throughout.

Turning to `CC(C)=CCC1=C(OCC(=O)O)C(=O)c2ccccc2C1=O`, the TGI in the assay with MDA-N is 34.8 µM.

Regarding `O=S1(=O)NC2CCC3NS(=O)(=O)NC4CCC(N1)N4S(=O)(=O)N23` (configuration not stated), in the assay on MDA-N, the TGI was above 100 µM.

In the case of `CCC(CCC(C)C1CCC2C3CC=C4CC(OC5OC(CO)C(O)C(O)C5O)CCC4(C)C3CCC12C)C(C)C` (configuration not stated), the TGI in the assay on MDA-N was above 100 µM.

`O=C(CC1(O)C(=O)Nc2ccccc21)c1ccc(F)cc1` (configuration not stated): the TGI in the assay on XF 498 CNS, with KM20L2 colon, in the assay with DMS 114 small cell lung, in the assay on DMS 273 small cell lung, in the assay on M19-MEL melanoma and with SNB-78 CNS was above 100 µM throughout.

Compound `COc1cc2oc(-c3ccc(O)cc3O)c(CC=C(C)C)c(=O)c2c(O)c1/C=C/C(C)C` registered a TGI in the assay with MDA-N of 8.34 µM.

As for `CC(=O)[CH-]C(=O)c1ccccc1.CC(=O)[CH-]C(=O)c1ccccc1.CC1(C)OCC(C2OC3OC(C)(C)OC3C2[O-])O1.CC1(C)OCC(C2OC3OC(C)(C)OC3C2[O-])O1.[Ti+4]` (configuration not stated), in the assay on KM20L2 colon, the GI50 was 29.6 µM and the TGI is above 100 µM. Also, in the assay on M19-MEL melanoma, the GI50 is 4.91 µM and the TGI is above 100 µM.

In the assay with MDA-N, `C[C@]12CC[C@H]3[C@@H](CCC4=CC(=O)CC[C@@]43C)[C@@H]1CC[C@@H]2C(=O)COS(=O)(=O)c1ccc(Br)cc1` displayed a TGI of 33.8 µM.

As to `Cc1cc(Cl)ccc1NC(=O)CCCC(=O)C1CCC/C1=N\NC(=O)CC#N` (configuration not stated), the TGI with XF 498 CNS, in the assay on KM20L2 colon, in the assay on RXF-631 renal, with DMS 114 small cell lung, in the assay with DMS 273 small cell lung and in the assay with M19-MEL melanoma was above 100 µM throughout. Further, the TGI was 97.9 µM in the assay with HOP-18 NSCLC and above 100 µM with SNB-78 CNS.

`COC(=O)C(CC(C)=O)CS(=O)(=O)CC(=O)C(=O)Nc1cccc([N+](=O)[O-])c1` (configuration not stated): the TGI in the assay on XF 498 CNS, in the assay on KM20L2 colon, with RXF-631 renal, with DMS 114 small cell lung, in the assay on DMS 273 small cell lung and with M19-MEL melanoma was above 100 µM throughout. In addition, the TGI in the assay with HOP-18 NSCLC and in the assay on SNB-78 CNS was above 100 µM throughout.
